Data taken from paper PMC3752380 (Nature chemical biology, 2013).

T1: MeaB (Methylorubrum extorquens, UniProt C5AP93)
T1 sequence (C5AP93 1-329): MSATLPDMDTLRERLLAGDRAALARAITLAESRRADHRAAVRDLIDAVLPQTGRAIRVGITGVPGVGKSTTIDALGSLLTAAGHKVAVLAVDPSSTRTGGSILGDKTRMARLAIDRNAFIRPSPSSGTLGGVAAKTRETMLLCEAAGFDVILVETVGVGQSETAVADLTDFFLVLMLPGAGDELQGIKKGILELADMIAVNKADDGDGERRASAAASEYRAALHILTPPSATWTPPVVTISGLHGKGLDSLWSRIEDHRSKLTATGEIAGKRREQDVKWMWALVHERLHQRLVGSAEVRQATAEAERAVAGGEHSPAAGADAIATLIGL

B1: MeaB (Methylobacterium extorquens AM1), wild type (natural protein)
chain: MSATLPDMDTLRERLLAGDRAALARAITLAESRRADHRAAVRDLIDAVLPQTGRAIRVGITGVPGVGKSTTIDALGSLLTAAGHKVAVLAVDPSSTRTGGSILGDKTRMARLAIDRNAFIRPSPSSGTLGGVAAKTRETMLLCEAAGFDVILVETVGVGQSETAVADLTDFFLVLMLPGAGDELQGIKKGILELADMIAVNKADDGDGERRASAAASEYRAALHILTPPSATWTPPVVTISGLHGKGLDSLWSRIEDHRSKLTATGEIAGKRREQDVKWMWALVHERLHQRLVGSAEVRQATAEAERAVAGGEHSPAAGADAIATLIGL

How the values were obtained:
MeaB = target: T1, MeaB; assay: isothermal titration calorimetry; format: binding
crystal structure = target: the molecule itself; assay: crystal structure

Row | Molecule | Kd (MeaB) [nM] | binding result (crystal structure)
1 | Nc1nc2c(ncn2[C@@H]2O[C@H](COP(=O)(O)OP(=O)(O)O)[C@@H](O)[C@H]2O)c(=O)[nH]1 [GDP] | 1400 ± 100 | 
2 | Nc1nc2c(ncn2[C@@H]2O[C@H](COP(=O)(O)OP(=O)(O)NP(=O)(O)O)[C@@H](O)[C@H]2O)c(=O)[nH]1 [GMPPNP] | 900 ± 200 | 
3 | B1 |  | binds
